# Non-standard residues stand in square brackets, D forms with d. Residues, ends and D or L forms follow the SMILES beside them. pGlu = O=C1CC[C@@H](C(=O)O)N1
# Key:
# Assay type in all cases: cell-based
# apTKRPR-A [1] = biological target: T1, apTKRPR-A (Aplysia californica, UniProt A0AAU7SSZ1); experiment: IP1 accumulation assay, CHO-K1 cells transiently expressing apTKRPR-A
# T1 sequence (A0AAU7SSZ1 1-398): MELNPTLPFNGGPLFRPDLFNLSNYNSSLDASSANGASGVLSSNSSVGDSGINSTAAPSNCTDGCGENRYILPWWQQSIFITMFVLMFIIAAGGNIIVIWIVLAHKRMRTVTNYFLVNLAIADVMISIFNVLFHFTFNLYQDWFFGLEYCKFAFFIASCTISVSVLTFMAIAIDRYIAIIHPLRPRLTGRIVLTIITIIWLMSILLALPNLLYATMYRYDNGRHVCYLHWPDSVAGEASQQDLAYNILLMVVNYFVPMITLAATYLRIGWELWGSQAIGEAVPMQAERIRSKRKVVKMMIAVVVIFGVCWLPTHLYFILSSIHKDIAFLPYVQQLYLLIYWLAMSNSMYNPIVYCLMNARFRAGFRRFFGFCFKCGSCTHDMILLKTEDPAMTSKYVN
# Description: (§1) To express putative Aplysia receptors transiently in CHO-K1 cells, the cDNAs were subcloned into the pcDNA3.1(+) or pcDNA3.1(+)-FLAG (for ELISA experiments only, see “Cell surface expression analysis by ELISA” section) expression vector. On the day before transfection, the CHO-K1 cells were passaged into 60 mm diameter tissue culture–treated dishes, and the transfection experiments were performed when the cells were grown to 70 to 90% confluence. CHO-K1 cells were transfected with the cDNA plasmid constructs using Turbofect Transfection reagent (Thermo Fisher Scientific, R0531), following the manufacturer’s instructions. […] The DNA/TurboFect mixture dropwise was then added to the dish, and the cells were incubated at 37 °C in a humidified incubator containing 5% CO2 overnight.
# (§2) On the third day, the activation of the putative receptors was detected by monitoring intracellular IP1 concentration using an IP-One Gq kit (Cisbio, 62IPAPEB) in Tecan Spark. Except for using 0.5x reagent, all other procedures were performed following the manufacturer’s instructions. IP1 accumulation assay measures the accumulation of IP1, which is hydrolyzed from the second messenger, and inositol triphosphate. Inositol triphosphate is generated by the Gαq pathway when a GPCR is activated by an appropriate ligand.
# apTKRPR-B [2] = biological target: T2, apTKRPR-B (Aplysia californica, UniProt A0AAU7STS1); experiment: IP1 accumulation assay, CHO-K1 cells transiently expressing apTKRPR-B
# T2 sequence (A0AAU7STS1 1-447): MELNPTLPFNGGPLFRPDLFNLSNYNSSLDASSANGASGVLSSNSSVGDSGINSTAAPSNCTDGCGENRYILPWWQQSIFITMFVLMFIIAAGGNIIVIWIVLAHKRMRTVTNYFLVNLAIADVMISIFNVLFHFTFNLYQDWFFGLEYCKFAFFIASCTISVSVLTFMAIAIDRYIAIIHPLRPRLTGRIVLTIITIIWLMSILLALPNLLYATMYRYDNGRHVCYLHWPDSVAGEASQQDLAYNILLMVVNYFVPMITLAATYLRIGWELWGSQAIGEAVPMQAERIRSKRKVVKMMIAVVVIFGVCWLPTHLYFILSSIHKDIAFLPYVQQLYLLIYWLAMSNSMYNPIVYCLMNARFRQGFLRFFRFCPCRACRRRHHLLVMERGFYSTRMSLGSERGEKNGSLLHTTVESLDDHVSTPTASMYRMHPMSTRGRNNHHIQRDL
# Description: as §1, §2
# apTKRPR-A [3] = biological target: T1, apTKRPR-A; experiment: Receptor desensitization assay, protocol 1 (prolonged agonist exposure), apTKRPR-A; conditions: 10 μM, 2, 5, 10, 15, 30 and 60 min at 37 °C; fold increase over basal; n = 3
# Description: (§3) Therefore, we adopted two protocols to study the desensitization of apTKRPRs. The protocols were performed using a procedure modified from previous work ([87], [88], [89]).
# (§4) Protocol 1 ([87], [88]): Under continuous (prolonged) stimulation with an agonist, we examined agonist-induced desensitization by quantifying the rate of IP1 accumulation. Specifically, CHO-K1 cells transiently expressing pcDNA3.1-apTKRPRs were incubated in the absence or presence of 10 μM (saturating concentration) apTKRP-2b for the different duration (2, 5, 10, 15, 30, and 60 min) at 37 °C, and intracellular concentrations of IP1 accumulation were measured. Data are presented as fold increase over basal IP1 concentration (Fig. S10).
# apTKRPR-B [4] = biological target: T2, apTKRPR-B; experiment: Receptor desensitization assay, protocol 1 (prolonged agonist exposure), apTKRPR-B; conditions: 10 μM, 2, 5, 10, 15, 30 and 60 min at 37 °C; fold increase over basal; n = 3
# Description: as §3, §4
# apTKRPR-B [5] = biological target: T2, apTKRPR-B; experiment: Cell surface expression by ELISA after ligand exposure, FLAG-apTKRPR-B; conditions: 10 µM, different durations, compared with 0 min, n = 4
# Description: Cell surface expression determination of apTKRPRs and mutant receptors, all with FLAG tags, was performed using a procedure modified from previous work ([64], [122], [123], [124]). Specifically, CHO-K1 cells were cultured in F-12K medium (Gibco, 21127-022) with 10% FBS (Genial, G11-70500) at 37 °C in a humidified incubator containing 5% CO2. When the cells were grown to 70 to 90% confluence, transfection experiments were performed (see “Cell culture and transfection” section). After 24 h, transfected cells were plated in 96-well white clear-bottom cell culture plates (Corning, 3610) at a density of 20,000 cells in 100 μl per well and incubated overnight. The following day, culture media was aspirated and cells were washed twice with 200 μl of 1× PBS (Procell, PB180327). Then, 100 μl of 1× PBS containing 5% (w/v) BSA was added to each well and incubated at room temperature. After 30 min, 100 μl of 1:10,000 anti-FLAG M2-horseradish peroxidase conjugate (Sigma-Aldrich, Cat A8592) was added to each well and incubated for 30 min at 37 °C. Cells were washed twice with 200 μl of 1× PBS and then incubated with 200 μl of TMB Chromogen Solution (Sangon Biotech, E661007) for 30 min at 37 °C in the dark. Finally, 50 μl of ELISA Stopping Solution (Sangon Biotech, E661006) was added to each well to stop the reaction. The absorbance at 450 nm was measured using a Tecan Spark microplate reader. […]
# [6] = 10^-5 M compared with 10^-10 M (control), n = 3, no Gαq cotransfection
smiles,measurement,setting,value
CC(C)C[C@H](NC(=O)[C@H](Cc1c[nH]cn1)NC(=O)[C@@H]1CCCN1C(=O)[C@@H]1CCC(=O)N1)C(=O)NCC(=O)N[C@@H](Cc1ccccc1)C(=O)N[C@@H](Cc1c[nH]cn1)C(=O)NCC(=O)N[C@@H](CO)C(=O)N[C@@H](CCCNC(=N)N)C(N)=O [apTKRP-2b] ([pGlu]PHLGFHGSR-NH2),EC50,apTKRPR-A [1],0.0372 µM
same,IP1 response of apTKRPR-A in screening,apTKRPR-A [1]; [6],responded
same,EC50,apTKRPR-B [2],0.00537 µM
same,IP1 response of apTKRPR-B in screening,apTKRPR-B [2]; [6],responded
same,"time course of IP1 accumulation, apTKRPR-A (protocol 1)",apTKRPR-A [3],initially increased and then reached a plateau
same,"time course of IP1 accumulation, apTKRPR-B (protocol 1)",apTKRPR-B [4],initially increased and then reached a plateau
same,cell surface receptor expression of apTKRPR-B after agonist exposure,apTKRPR-B [5],significant loss of receptor expression
